Patent publication US20260184691A1, “INHIBITORS AND DEGRADERS OF PIP4K PROTEIN” (Larkspur Biosciences, Inc., priority 2022, published 2026)

Target: T1, endogenous PIP4K2C C-terminally tagged with HiBiT peptide in MOLT-4 cells (Homo sapiens, UniProt Q8TBX8)
T1 construct: to C-terminally tag endogenous PIP4K2C with HiBiT peptide; host or cells: MOLT-4 (CRISPR-Cas9 knock-in clone)
T1 sequence (Q8TBX8 1-421): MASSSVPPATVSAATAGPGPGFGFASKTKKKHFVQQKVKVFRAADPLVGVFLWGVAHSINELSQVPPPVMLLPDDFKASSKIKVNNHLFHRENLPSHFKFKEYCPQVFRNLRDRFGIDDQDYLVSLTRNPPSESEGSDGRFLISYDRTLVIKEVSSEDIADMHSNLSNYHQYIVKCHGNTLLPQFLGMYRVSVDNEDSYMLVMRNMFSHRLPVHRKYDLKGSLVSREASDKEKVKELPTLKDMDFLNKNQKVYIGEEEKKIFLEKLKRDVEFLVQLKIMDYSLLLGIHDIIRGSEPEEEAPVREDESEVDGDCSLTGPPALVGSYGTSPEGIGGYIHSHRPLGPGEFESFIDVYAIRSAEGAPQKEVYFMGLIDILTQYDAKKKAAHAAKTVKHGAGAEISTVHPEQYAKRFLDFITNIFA
Experiment: HiBiT PIP4K2C degradation assay in MOLT-4 cells
Format: cell-based
Settings: 24 hours, 10-point dose response, top concentration 10 micromolar, read-out: HiBIT-degradation MOLT4 PIP4k2C 24 hours DC50
Summary of the method: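 Cells bearing C-terminal HiBiT knock-in were exposed to a 10-point, 3-fold dilution series (top 10 micromolar, duplicate) for 24 h at 37C, 5% CO2. Remaining tagged protein read by lytic HiBiT luminescence; DC50 from Hill-equation fit.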

DC50, < 500 nM:
O=C1CCC(N2C(=O)c3cccc(OCCCN4CCN(CCCCC(=O)Nc5cncc(Nc6ncc(Cl)c(-c7cccc(-c8ccccc8)c7)n6)c5)CC4)c3C2=O)C(=O)N1 (stereo not shown) [Compound 65, N-(5-((4-([1,1′-biphenyl]-3-yl)-5-chloropyrimidin-2-yl)amino)pyridin-3-yl)-5-(4-(3-((2-(2,6-dioxopiperidin-3-yl)-1,3-dioxoisoindolin-4-yl)oxy)propyl)piperazin-1-yl)pentanamide]
O=C1CCC(N2Cc3cc(NCCCCCC(=O)N4CCC5(CC4)CCN(c4cncc(Nc6ncc(Cl)c(-c7cccc(-c8ccccc8)c7)n6)c4)C5=O)ccc3C2=O)C(=O)N1 (stereo not shown) [Compound 82, 3-(5-((6-(2-(5-((4-([1,1′-biphenyl]-3-yl)-5-chloropyrimidin-2-yl)amino)pyridin-3-yl)-1-oxo-2,8-diazaspiro[4.5]decan-8-yl)-6-oxohexyl)amino)-1-oxoisoindolin-2-yl)piperidine-2,6-dione]
Cn1c(=O)n(C2CCC(=O)NC2=O)c2ccc(C3CCN(CC(=O)N4CCC(C(=O)Nc5cncc(Nc6ncc(Cl)c(-c7cccc(C8CC8)c7)n6)c5)CC4)CC3)cc21 (stereo not shown) [Compound 210, N-(5-((5-chloro-4-(3-cyclopropylphenyl)pyrimidin-2-yl)amino)pyridin-3-yl)-1-(2-(4-(1-(2,6-dioxopiperidin-3-yl)-3-methyl-2-oxo-2,3-dihydro-1H-benzo[d]imidazol-5-yl)piperidin-1-yl)acetyl)piperidine-4-carboxamide]
O=C1CCC(Nc2ccc(N3CCC(CN4CCC(C(=O)Nc5cncc(Nc6ncc(Cl)c(-c7cccc(-c8ccccc8)c7)n6)c5)CC4)CC3)cc2)C(=O)N1 (stereo not shown) [Compound 187, N-(5-((4-([1,1′-biphenyl]-3-yl)-5-chloropyrimidin-2-yl)amino)pyridin-3-yl)-1-((1-(4-((2,6-dioxopiperidin-3-yl)amino)phenyl)piperidin-4-yl)methyl)piperidine-4-carboxamide]
